In paper PMC10714399, “Open Source Antibiotics: Simple Diarylimidazoles Are Potent against Methicillin-Resistant Staphylococcus aureus” (ACS Infectious Diseases, 2023):
≈ marks a conversion by molar mass, not a printed value. Where “and” joins values, the source holds several entries; their conditions need not be identical. Equal values may be shown once. Read-outs that look alike come from different tables or passages of the source.

Tests used:
[1] = system: MRC-5SV2 (human lung fibroblast cell line); test: Toxicity against MRC-5SV2; type: cell-based
Description: (§1) ADME and toxicity for compounds were measured according to procedures outlined in the manuscript submitted in parallel to this one;2 other procedures were used for those compounds analysed by Monash University (in vitro ADME) or UCL (toxicity), both described in the main

[2] = system: PMM (primary mouse macrophages); test: Toxicity against PMM; type: cell-based
Description: as §1

[3] = system: S. aureus ATCC 25923 (methicillin-susceptible); test: In vitro antibacterial activity, MIC (UCL), MSSA; type: cell-based, Staphylococcus aureus; settings: for MIC: Staphylococcus aureus
Description: (§2) Staphylococcus aureus NCTC 13373 (mecA-positive; methicillin-resistant, NCTC 13373) was supplied by the National Collection of Type Cultures (NCTC), Public Health England, United Kingdom. Other organisms, S. aureus ATCC 25923 (methicillin-susceptible) and Enterococcus faecalis ATCC 51299 (vanA-positive; vancomycin-resistant), were obtained from the American Type Culture Collection (ATCC) via LGC Standards, UK. A suspension of each organism was prepared from an overnight plate culture (tryptone soya agar) in phosphate-buffered saline (PBS) and adjusted to an absorbance reading at 600 nm of 0.1, which is approximately equivalent to 1 × 10^8 colony-forming units (CFU) per mL. The cultures were further diluted 1:100 in isosensitest broth (Oxoid, United Kingdom) before 100 μL was used to inoculate each well of a 96-well plate that contained diluted samples of the OSA series. Compounds were evaluated over a 2-fold dilution range from 32 to 0.03 μg/mL. Stocks of the samples were prepared in 100% DMSO at […] before being diluted in isosenstitest broth. The highest concentration of DMSO present was 2%, which has been previously shown not to inhibit the growth of the microorganisms (data not shown). […] Vancomycin was used as a quality control compound.

[4] = system: Staphylococcus aureus NCTC 13373 (mecA-positive; methicillin-resistant); test: In vitro antibacterial activity, MIC (UCL School of Pharmacy assay), MRSA; type: cell-based; settings: for MIC: Staphylococcus aureus
Description: as §2

[5] = system: Enterococcus faecalis ATCC 51299 (vanA-positive; vancomycin-resistant); test: In vitro antibacterial activity, MIC (UCL), VRE; type: cell-based
Description: as §2

[6] = UCL assay, read-out: MSSA MIC (ug/mL) (UCL)
[7] = UCL assay, read-out: MRSA MIC (ug/mL) (UCL)

Compound	MRC5 TC50 ([1]; MRC5 cells) [µM]	PMM TC50 ([2]; PMM) [µM]	MIC [3, 6] [µg/mL]	MIC [4, 7] [µg/mL]	MRC5 TC50 [1] [µg/mL]	PMM TC50 [2] [µg/mL]	MRSA MIC [4]	MSSA MIC [3] [µg/mL]	also measured
CCCCN(Cc1c(-c2ccccc2)nc2ccc(C)cn12)c1cccc(C(F)(F)F)c1 [OSA_001029]	1.19	8	8 (≈ 18.3 µM)	8 (≈ 18.3 µM)	–	–	–	–	–
c1cnc(-c2nc3n(c2-c2ccc4occc4c2)CCC3)cn1 [compound 873]	–	–	–	–	–	–	–	–	MIC ([5]; read-out: VRE MIC): > 32 µg/mL; MIC ([3]; read-out: MSSA MIC): > 32 µg/mL; activity against MRSA, in words [4]: inactive; MIC ([4]; read-out: MRSA MIC): > 32 µg/mL
Fc1ccc(NCc2c(-c3ccccn3)nc3ccccn23)cc1 [OSA_001019]	64	64	> 32	> 32	–	–	–	–	–
Fc1ccc(NCc2c(-c3ccccn3)nc3ccccn23)cc1 [compound 1019]	–	–	–	–	20.4	20.4	32 µg/mL	–	MIC ([3]; read-out: MSSA MIC): > 32 µg/mL; MIC ([4]; read-out: MRSA MIC): > 32 µg/mL
COc1ccn2c(Nc3ccccc3F)c(-c3ccccn3)nc2c1 [compound 851]	–	–	–	–	–	–	8 µg/mL	4	VRE MIC [5]: 16 µg/mL
FC(F)(F)c1ccc(-c2c(-c3ccccn3)nc3n2CCC3)cc1 [OSA_001052]	8.17	32	16 (≈ 48.6 µM)	16 (≈ 48.6 µM)	–	–	–	–	–
c1cnc(-c2nc3n(c2-c2ccc4occc4c2)CCC3)cn1 [OSA_000873]	–	–	–	–	–	–	–	–	MIC ([5]; read-out: VRE MIC (UCL)): > 32 µg/mL; MIC ([3]; read-out: MSSA MIC (UCL)): > 32 µg/mL; MIC ([4]; UCL, read-out: MRSA MIC (UCL)): > 32 µg/mL
Nc1ccc(-c2c(-c3ccccn3)nc3n2CCC3)cc1 [compound 1074]	–	–	–	–	1.6	2.2	> 32 µg/mL and 32 µg/mL	> 32	–
N#Cc1ccc(-c2c(-c3ccccn3)nc3n2CCC3)cn1 [compound 1075]	–	–	–	–	18.4	18.4	> 32 µg/mL and 32 µg/mL	> 32	–
N#Cc1ccc(-c2c(-c3ccccn3)nc3n2CCC3)cc1C(F)(F)F [OSA_001077]	64	64	> 32	> 32	–	–	–	–	–
N#Cc1ccc(-c2c(-c3ccccn3)nc3n2CCC3)cc1C(F)(F)F [compound 1077]	–	–	–	–	22.7	22.7	> 32 µg/mL and 32 µg/mL	> 32	–
Cc1ccc2nc(-c3ccccc3)cn2c1 [OSA_001026]	64	64	> 32	> 32	–	–	–	–	–
Cc1ccn2cc(-c3ccccn3)nc2c1 [OSA_001030]	22.11	64	> 32	> 32	–	–	–	–	–
FC(F)(F)c1ccc(-c2c(-c3ccccn3)nc3n2CCC3)cc1 [compound 1052]	–	–	–	–	2.7	10.5	–	–	MIC ([3]; read-out: MSSA MIC): 16 µg/mL (≈ 48.6 µM); MIC ([4]; read-out: MRSA MIC): 16 µg/mL (≈ 48.6 µM)
Cc1ccn2c(CN(CC(C)C)c3cccc(C(F)(F)F)c3)c(-c3ccccn3)nc2c1 [compound 1033]	–	–	–	–	4.3	14.0	> 32 µg/mL and 32 µg/mL	> 32	–
Cc1ccn2c(CN(CC(C)C)c3cccc(C(F)(F)F)c3)c(-c3ccccn3)nc2c1 [OSA_001033]	9.78	32	> 32	> 32	–	–	–	–	–
CS(=O)(=O)c1ccc2nc(-c3ccccn3)c(Nc3ccc(F)cc3)n2c1 [compound 1020]	–	–	–	–	24.5	12.2	> 32 µg/mL and 32 µg/mL	> 32	–
Nc1ccc(-c2c(-c3ccccn3)nc3n2CCC3)cc1 [OSA_001074]	5.73	8	> 32	> 32	–	–	–	–	–
CCCCN(Cc1c(-c2ccccn2)nc2cc(C)ccn12)c1ccc(F)cc1 [OSA_001032]	16	32	32 (≈ 82.4 µM)	32 (≈ 82.4 µM)	–	–	–	–	–
Cc1ccc2nc(-c3ccccc3)c(CNc3cccc(C(F)(F)F)c3)n2c1 [OSA_001028]	64	64	> 32	> 32	–	–	–	–	–
Cc1ccn2cc(-c3ccccn3)nc2c1 [compound 1030]	–	–	–	–	4.6	13.4	> 32 µg/mL and 32 µg/mL	> 32	–
Fc1ccc(-c2c(-c3ccccn3)nc3n2CCC3)cc1 [compound 1053]	–	–	–	–	2.1	8.9	> 32 µg/mL and 32 µg/mL	> 32	–

Compound	MRC5 TC50 ([1]; MRC5 cells) [µM]	PMM TC50 ([2]; PMM) [µM]	MIC [3, 6] [µg/mL]	MIC [4, 7] [µg/mL]	MRC5 TC50 [1] [µg/mL]	PMM TC50 [2] [µg/mL]	MRSA MIC [4]	MSSA MIC [3] [µg/mL]	also measured
Cc1ccc2nc(-c3ccccc3)c(CNc3ccc(F)cc3)n2c1 [OSA_001027]	64	64	> 32	> 32	–	–	–	–	–
Cc1ccn2c(CNc3ccc(F)cc3)c(-c3ccccn3)nc2c1 [OSA_001031]	64	64	> 32	> 32	–	–	–	–	–
Fc1cc(-c2c(-c3ccccn3)nc3n2CCC3)ccn1 [compound 1073]	–	–	–	–	8.6	9.0	> 32 µg/mL and 32 µg/mL	> 32	–
COc1cc(-c2c(-c3ccccn3)nc3n2CCC3)ccc1C#N [compound 1076]	–	–	–	–	8.8	20.2	> 32 µg/mL and 32 µg/mL	> 32	–
Cc1ccc2nc(-c3ccccn3)c(NCc3ccccc3)n2c1 [compound 842]	–	–	–	–	–	–	8 µg/mL	4	VRE MIC [5]: 32 µg/mL
COc1cc(-c2c(-c3ccccn3)nc3n2CCC3)ccc1C#N [OSA_001076]	27.86	64	> 32	> 32	–	–	–	–	–
c1ccc(-c2nc3n(c2-c2ccncc2)CCC3)nc1 [compound 1072]	–	–	–	–	16.8	16.8	> 32 µg/mL and 32 µg/mL	> 32	–
Cc1ccc2nc(-c3ccccc3)cn2c1 [compound 1026]	–	–	–	–	13.3	13.3	> 32 µg/mL and 32 µg/mL	> 32	–
COc1ccn2c(Nc3ccccc3F)c(-c3ccccn3)nc2c1 [OSA_000851]	–	–	–	–	–	–	–	–	MIC ([5]; read-out: VRE MIC (UCL)): 16 µg/mL (≈ 47.9 µM); MIC ([3]; read-out: MSSA MIC (UCL)): 4 µg/mL (≈ 12 µM); MIC ([4]; UCL, read-out: MRSA MIC (UCL)): 8 µg/mL (≈ 23.9 µM)
N#Cc1ccc(-c2c(-c3ccccn3)nc3n2CCC3)cn1 [OSA_001075]	64	64	> 32	> 32	–	–	–	–	–
Cc1ccc2nc(-c3ccccc3)c(CNc3cccc(C(F)(F)F)c3)n2c1 [compound 1028]	–	–	–	–	24.4	24.4	> 32 µg/mL and 32 µg/mL	> 32	–
Fc1cc(-c2c(-c3ccccn3)nc3n2CCC3)ccn1 [OSA_001073]	30.55	32	> 32	> 32	–	–	–	–	–
Cc1ccc2nc(-c3ccccn3)c(NCc3ccccc3)n2c1 [OSA_000842]	–	–	–	–	–	–	–	–	MIC ([5]; read-out: VRE MIC (UCL)): 32 µg/mL (≈ 102 µM); MIC ([3]; read-out: MSSA MIC (UCL)): 4 µg/mL (≈ 12.7 µM); MIC ([4]; UCL, read-out: MRSA MIC (UCL)): 8 µg/mL (≈ 25.4 µM)
CCCCN(Cc1c(-c2ccccc2)nc2ccc(C)cn12)c1cccc(C(F)(F)F)c1 [compound 1029]	–	–	–	–	0.5	3.5	8 µg/mL	8	–
CC(=O)N(c1ccc(F)cc1)c1c(-c2ccccn2)nc2ccccn12 [compound 1021]	–	–	–	–	22.2	22.2	32 µg/mL	–	MIC ([3]; read-out: MSSA MIC): > 32 µg/mL; MIC ([4]; read-out: MRSA MIC): > 32 µg/mL
Cc1ccc2nc(-c3ccccn3)c(Nc3ccc4c(c3)OCCO4)n2c1 [compound 841]	–	–	–	–	–	–	8 µg/mL	–	VRE MIC [5]: 16 µg/mL
COc1ccc2nc(-c3c[nH]cn3)c(Nc3ccc4c(c3)OCCO4)n2c1 [compound 867]	–	–	–	–	–	–	> 32 µg/mL	–	VRE MIC [5]: > 32 µg/mL
Cc1ccccc1-c1c(-c2ccccn2)nc2n1CCC2 [OSA_000977]	–	–	–	–	–	–	–	–	MIC ([5]; read-out: VRE MIC (UCL)): 32 µg/mL (≈ 116 µM); MIC ([4]; UCL, read-out: MRSA MIC (UCL)): 32 µg/mL (≈ 116 µM)
COc1ccn2c(Nc3ccnc(C)c3)c(-c3ccccn3)nc2c1 [OSA_000854]	–	–	–	–	–	–	–	–	MIC ([5]; read-out: VRE MIC (UCL)): > 32 µg/mL; MIC ([4]; UCL, read-out: MRSA MIC (UCL)): > 32 µg/mL
CC(=O)c1ccc(-c2c(-c3ccccn3)nc3n2CCC3)cc1 [OSA_000973]	–	–	–	–	–	–	–	–	MIC ([5]; read-out: VRE MIC (UCL)): > 32 µg/mL; MIC ([4]; UCL, read-out: MRSA MIC (UCL)): > 32 µg/mL
Cc1ccn2c(NC3CCCC3)c(-c3ccc(N(C)C)cc3)nc2c1 [OSA_000840]	–	–	–	–	–	–	–	–	MIC ([5]; read-out: VRE MIC (UCL)): > 32 µg/mL; MIC ([4]; UCL, read-out: MRSA MIC (UCL)): > 32 µg/mL
COc1ccn2c(Nc3cccc(F)c3)c(-c3cscn3)nc2c1.O=CO [compound 843]	–	–	–	–	–	–	> 32 µg/mL	–	VRE MIC [5]: > 32 µg/mL
